Data: PubChem BioAssay (NCI)
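Where inhibition never reached the appropriate level, the endpoint shown equals the highest concentration tested. Otherwise, values were interpolated linearly from a five-concentration, 48-hour dose response in 96-well plates. GI50 = concentration required for 50% inhibition of growth. TGI: total growth inhibition.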

Assays:
Experiment in all cases: inhibition of tumour cell growth, NCI panel, 48 h
NCI-H522 lung = test system: NCI-H522 lung
U251 CNS = test system: U251 CNS
HCT-15 colon = test system: HCT-15 colon
786-0 renal = test system: 786-0 renal
A549 NSCLC = test system: A549 NSCLC
SK-MEL-2 melanoma = test system: SK-MEL-2 melanoma
OVCAR-8 ovarian = test system: OVCAR-8 ovarian
SF-539 CNS = test system: SF-539 CNS
M14 melanoma = test system: M14 melanoma
SW-620 colon = test system: SW-620 colon
SK-MEL-28 melanoma = test system: SK-MEL-28 melanoma
SK-MEL-5 melanoma = test system: SK-MEL-5 melanoma
MDA-MB-231 breast = test system: MDA-MB-231 breast
RPMI-8226 leukemia = test system: RPMI-8226 leukemia
OVCAR-5 ovarian = test system: OVCAR-5 ovarian
SNB-75 CNS = test system: SNB-75 CNS
UACC-62 melanoma = test system: UACC-62 melanoma
MDA-MB-435 = test system: MDA-MB-435
T-47D breast = test system: T-47D breast
UACC-257 melanoma = test system: UACC-257 melanoma
OVCAR-3 ovarian = test system: OVCAR-3 ovarian
SF-268 CNS = test system: SF-268 CNS
TK-10 renal = test system: TK-10 renal
CCRF-CEM leukemia = test system: CCRF-CEM leukemia
ACHN renal = test system: ACHN renal
CAKI-1 renal = test system: CAKI-1 renal
BT-549 breast = test system: BT-549 breast
NCI-H226 lung = test system: NCI-H226 lung
MALME-3M melanoma = test system: MALME-3M melanoma
OVCAR-4 ovarian = test system: OVCAR-4 ovarian
SF-295 CNS = test system: SF-295 CNS
COLO 205 colon = test system: COLO 205 colon
EKVX NSCLC = test system: EKVX NSCLC
NCI-H23 lung = test system: NCI-H23 lung
SNB-19 CNS = test system: SNB-19 CNS
SN12C renal = test system: SN12C renal
HCC-2998 colon = test system: HCC-2998 colon
HOP-62 NSCLC = test system: HOP-62 NSCLC
K-562 leukemia = test system: K-562 leukemia
PC-3 prostate = test system: PC-3 prostate
MCF7 breast = test system: MCF7 breast
HS 578T breast = test system: HS 578T breast
SK-OV-3 ovarian = test system: SK-OV-3 ovarian
NCI/ADR-RES ovarian = test system: NCI/ADR-RES ovarian
MOLT-4 leukemia = test system: MOLT-4 leukemia
UO-31 renal = test system: UO-31 renal
NCI-H460 lung = test system: NCI-H460 lung
HOP-92 NSCLC = test system: HOP-92 NSCLC
IGROV1 ovarian = test system: IGROV1 ovarian
HT29 colon = test system: HT29 colon
DU-145 prostate = test system: DU-145 prostate
HCT-116 colon = test system: HCT-116 colon
LOX IMVI melanoma = test system: LOX IMVI melanoma
A498 renal = test system: A498 renal
KM12 colon = test system: KM12 colon
RXF 393 renal = test system: RXF 393 renal

N=C(N)c1ccc(COc2ccccc2OCc2ccc(C(=N)N)cc2)cc1
GI50 (NCI-H522 lung): 99.5 µM
TGI (NCI-H522 lung): > 100 µM
GI50 (U251 CNS): 25.6 µM
TGI (U251 CNS): 65.4 µM
GI50 (HCT-15 colon): 75.6 µM
TGI (HCT-15 colon): > 100 µM
GI50 (786-0 renal): 29.8 µM
TGI (786-0 renal): > 100 µM
GI50 (A549 NSCLC): 57.5 µM
TGI (A549 NSCLC): > 100 µM
GI50 (SK-MEL-2 melanoma): > 100 µM
TGI (SK-MEL-2 melanoma): > 100 µM
GI50 (OVCAR-8 ovarian): 48.2 µM
TGI (OVCAR-8 ovarian): > 100 µM
GI50 (SF-539 CNS): 14 µM
TGI (SF-539 CNS): 34.6 µM
GI50 (M14 melanoma): 51.2 µM
TGI (M14 melanoma): > 100 µM
GI50 (SW-620 colon): 43.5 µM
TGI (SW-620 colon): > 100 µM
GI50 (SK-MEL-28 melanoma): 70 µM
TGI (SK-MEL-28 melanoma): > 100 µM
GI50 (SK-MEL-5 melanoma): 17.1 µM
TGI (SK-MEL-5 melanoma): 44.5 µM
GI50 (MDA-MB-231 breast): 32.9 µM
TGI (MDA-MB-231 breast): > 100 µM
GI50 (RPMI-8226 leukemia): 16.6 µM
TGI (RPMI-8226 leukemia): 99.3 µM
GI50 (OVCAR-5 ovarian): > 100 µM
TGI (OVCAR-5 ovarian): > 100 µM
GI50 (SNB-75 CNS): 73.8 µM
TGI (SNB-75 CNS): > 100 µM
GI50 (UACC-62 melanoma): 34.2 µM
TGI (UACC-62 melanoma): > 100 µM
GI50 (MDA-MB-435): 30.2 µM
TGI (MDA-MB-435): > 100 µM
GI50 (T-47D breast): 58.4 µM
TGI (T-47D breast): > 100 µM
GI50 (UACC-257 melanoma): > 100 µM
TGI (UACC-257 melanoma): > 100 µM
GI50 (OVCAR-3 ovarian): 16.4 µM
TGI (OVCAR-3 ovarian): 53.5 µM
GI50 (SF-268 CNS): 31.8 µM
TGI (SF-268 CNS): 86 µM
GI50 (TK-10 renal): 34.3 µM
TGI (TK-10 renal): > 100 µM
GI50 (CCRF-CEM leukemia): 33.1 µM
TGI (CCRF-CEM leukemia): > 100 µM
GI50 (ACHN renal): > 100 µM
TGI (ACHN renal): > 100 µM
GI50 (CAKI-1 renal): 2.11 µM
TGI (CAKI-1 renal): 29.8 µM
GI50 (BT-549 breast): 34.8 µM
TGI (BT-549 breast): 76.7 µM
GI50 (NCI-H226 lung): 28.6 µM
TGI (NCI-H226 lung): 81 µM
GI50 (MALME-3M melanoma): 19.2 µM
TGI (MALME-3M melanoma): 52.2 µM
GI50 (OVCAR-4 ovarian): 92 µM
TGI (OVCAR-4 ovarian): > 100 µM
GI50 (SF-295 CNS): 24.1 µM
TGI (SF-295 CNS): 82.4 µM
GI50 (COLO 205 colon): > 100 µM
TGI (COLO 205 colon): > 100 µM
GI50 (EKVX NSCLC): 38.5 µM
TGI (EKVX NSCLC): > 100 µM
GI50 (NCI-H23 lung): 49.4 µM
TGI (NCI-H23 lung): > 100 µM
GI50 (SNB-19 CNS): 41.4 µM
TGI (SNB-19 CNS): > 100 µM
GI50 (SN12C renal): 6.6 µM
TGI (SN12C renal): 89.3 µM
GI50 (HCC-2998 colon): 86.8 µM
TGI (HCC-2998 colon): > 100 µM
GI50 (HOP-62 NSCLC): 18.9 µM
TGI (HOP-62 NSCLC): 48.9 µM
GI50 (K-562 leukemia): 34.8 µM
TGI (K-562 leukemia): > 100 µM
GI50 (PC-3 prostate): 36.3 µM
TGI (PC-3 prostate): > 100 µM
GI50 (MCF7 breast): 46.5 µM
TGI (MCF7 breast): > 100 µM
GI50 (HS 578T breast): 18.2 µM
TGI (HS 578T breast): 52.6 µM
GI50 (SK-OV-3 ovarian): > 100 µM
TGI (SK-OV-3 ovarian): > 100 µM
GI50 (NCI/ADR-RES ovarian): > 100 µM
TGI (NCI/ADR-RES ovarian): > 100 µM
GI50 (MOLT-4 leukemia): 49.6 µM
TGI (MOLT-4 leukemia): > 100 µM
GI50 (UO-31 renal): > 100 µM
TGI (UO-31 renal): > 100 µM
GI50 (NCI-H460 lung): 20.9 µM
TGI (NCI-H460 lung): > 100 µM
GI50 (HOP-92 NSCLC): 11.4 µM
TGI (HOP-92 NSCLC): 86.2 µM
GI50 (IGROV1 ovarian): 61.6 µM
TGI (IGROV1 ovarian): > 100 µM
GI50 (HT29 colon): 47 µM
TGI (HT29 colon): > 100 µM
GI50 (DU-145 prostate): 18.7 µM
TGI (DU-145 prostate): 45.8 µM
GI50 (HCT-116 colon): 35.2 µM
TGI (HCT-116 colon): > 100 µM

O=C(CN(/C=C/C(=O)C(F)(F)F)c1ccccc1)c1ccc(Cl)c(Cl)c1
GI50 (NCI-H522 lung): 11.1 µM
TGI (NCI-H522 lung): 25 µM
GI50 (U251 CNS): 14.8 µM
TGI (U251 CNS): 28.1 µM
GI50 (HCT-15 colon): 14.6 µM
TGI (HCT-15 colon): 28.2 µM
GI50 (786-0 renal): 17.6 µM
TGI (786-0 renal): 37.5 µM
GI50 (A549 NSCLC): 13.4 µM
TGI (A549 NSCLC): 29.8 µM
GI50 (SK-MEL-2 melanoma): 12.4 µM
TGI (SK-MEL-2 melanoma): 26.6 µM
GI50 (OVCAR-8 ovarian): 16.6 µM
TGI (OVCAR-8 ovarian): 33 µM
GI50 (SF-539 CNS): 18 µM
TGI (SF-539 CNS): 39.8 µM
GI50 (LOX IMVI melanoma): 16 µM
TGI (LOX IMVI melanoma): 31.8 µM
GI50 (SW-620 colon): 14.6 µM
TGI (SW-620 colon): 30.1 µM
GI50 (A498 renal): 14.2 µM
TGI (A498 renal): 27.4 µM
GI50 (SK-MEL-28 melanoma): 23.9 µM
TGI (SK-MEL-28 melanoma): 56.2 µM
GI50 (KM12 colon): 12.3 µM
TGI (KM12 colon): 28.4 µM
GI50 (SK-MEL-5 melanoma): 13.2 µM
TGI (SK-MEL-5 melanoma): 26.3 µM
GI50 (MDA-MB-231 breast): 12.8 µM
TGI (MDA-MB-231 breast): 26.3 µM
GI50 (RPMI-8226 leukemia): 13.9 µM
TGI (RPMI-8226 leukemia): 40.2 µM
GI50 (OVCAR-5 ovarian): 17 µM
TGI (OVCAR-5 ovarian): 33.9 µM
GI50 (UACC-62 melanoma): 9.43 µM
TGI (UACC-62 melanoma): 21.3 µM
GI50 (MDA-MB-435): 14.9 µM
TGI (MDA-MB-435): 31.9 µM
GI50 (T-47D breast): 15.8 µM
TGI (T-47D breast): 55.7 µM
GI50 (UACC-257 melanoma): 13.4 µM
TGI (UACC-257 melanoma): 27.4 µM
GI50 (OVCAR-3 ovarian): 14.1 µM
TGI (OVCAR-3 ovarian): 30 µM
GI50 (SF-268 CNS): 18.4 µM
TGI (SF-268 CNS): 40.7 µM
GI50 (TK-10 renal): 15.9 µM
TGI (TK-10 renal): 32.8 µM
GI50 (CCRF-CEM leukemia): 11.2 µM
TGI (CCRF-CEM leukemia): 29.2 µM
GI50 (ACHN renal): 14.7 µM
TGI (ACHN renal): 27.9 µM
GI50 (CAKI-1 renal): 8.44 µM
TGI (CAKI-1 renal): 23.4 µM
GI50 (BT-549 breast): 10.9 µM
TGI (BT-549 breast): 29.5 µM
GI50 (NCI-H226 lung): 13.7 µM
TGI (NCI-H226 lung): 27.9 µM
GI50 (MALME-3M melanoma): 12.8 µM
TGI (MALME-3M melanoma): 32.1 µM
GI50 (OVCAR-4 ovarian): 20.3 µM
TGI (OVCAR-4 ovarian): 45.6 µM
GI50 (RXF 393 renal): 17.1 µM
TGI (RXF 393 renal): 52.5 µM
GI50 (SF-295 CNS): 12.4 µM
TGI (SF-295 CNS): 27.5 µM
GI50 (COLO 205 colon): 19.5 µM
TGI (COLO 205 colon): 42.4 µM
GI50 (EKVX NSCLC): 13.5 µM
TGI (EKVX NSCLC): 28.8 µM
GI50 (NCI-H23 lung): 13.6 µM
TGI (NCI-H23 lung): 26.7 µM
GI50 (SNB-19 CNS): 20.3 µM
TGI (SNB-19 CNS): 46.4 µM
GI50 (SN12C renal): 15.1 µM
TGI (SN12C renal): 28.3 µM
GI50 (HCC-2998 colon): 15.8 µM
TGI (HCC-2998 colon): 29.9 µM
GI50 (HOP-62 NSCLC): 28.3 µM
TGI (HOP-62 NSCLC): > 100 µM
GI50 (K-562 leukemia): 15.7 µM
TGI (K-562 leukemia): 37.6 µM
GI50 (PC-3 prostate): 13.3 µM
TGI (PC-3 prostate): 26.9 µM
GI50 (MCF7 breast): 5.2 µM
TGI (MCF7 breast): 55.3 µM
GI50 (HS 578T breast): 14.8 µM
TGI (HS 578T breast): 49.6 µM
GI50 (SK-OV-3 ovarian): 21.1 µM
TGI (SK-OV-3 ovarian): 40.1 µM
GI50 (NCI/ADR-RES ovarian): 15.2 µM
TGI (NCI/ADR-RES ovarian): 31.3 µM
GI50 (MOLT-4 leukemia): 12.7 µM
TGI (MOLT-4 leukemia): 32.4 µM
GI50 (UO-31 renal): 11.4 µM
TGI (UO-31 renal): 24.3 µM
GI50 (NCI-H460 lung): 17.5 µM
TGI (NCI-H460 lung): 44.9 µM
GI50 (HOP-92 NSCLC): 17.7 µM
TGI (HOP-92 NSCLC): 38.5 µM
GI50 (IGROV1 ovarian): 5.76 µM
TGI (IGROV1 ovarian): 19.7 µM
GI50 (HT29 colon): 34.1 µM
TGI (HT29 colon): > 100 µM
GI50 (DU-145 prostate): 13 µM
TGI (DU-145 prostate): 30.6 µM
GI50 (HCT-116 colon): 12.7 µM
TGI (HCT-116 colon): > 100 µM
